Source: publication PMC8577775, “Small molecule allosteric inhibitors of RORγt block Th17-dependent inflammation and associated gene expression in vivo” (PLoS ONE, 2021)

Assays:
PDAC PDO model T031P = test: In vitro organoid formation assay (CellTiter-Glo 3D); type: cell-based; conditions: Homo sapiens, T031P, treated 24 hr post-plating
Method: Patient derived organoids were established as previously described. Briefly, PDX tumor chunks were minced then enzymatically digested into single cells by using a tumor dissociation Kit (Miltenyi, Cat# 130-095-929). Mouse and human cells were separated through magnetic separation, and isolated tumor cells were cultured on Matrigel-coated dishes. Organoid cultures were maintained by growing on Matrigel in human complete maintenance media: Advanced DMEM/F12 media (Life Technology, Cat# 12634028), 10 mM HEPES (Life Technology, Cat# 15630–080), 1X Glutamax (Life Technology, Cat# 35050–061), 1X Antibiotic-Antimycotic (Life Technology, Cat# 15240–062), 10 mM Nicotinamide (Sigma-Aldrich, Cat# N0636-500G), 250 ng/mL R-Spondin-1 (Peprotech, Cat# 120–38), 100 ng/mL Noggin (Peprotech, Cat# 120-10C), 50 ng/mL EGF (Peprotech, Cat# AF-100-15), 100 ng/mL FGF10 (Peprotech, Cat# 100–26), […] (Sigma-Aldrich, Cat# G9020), 500 nM A83-01 (Sigma, Cat# SML0788), 20 μM Y-27632 (LC Laboratories, Cat# Y-5301), 1X B27 (Life Technology, Cat# 12587010), 10 ng/mL Wnt3a (R&D Systems, Cat# 5036-WN-010), 0.1% Methylcelluose (R&D Systems, Cat# HSC001) and Plasmocin (Invivogen, Cat# Ant-mpp) and were passaged every 10–14 days. Organoids were isolated from Matrigel (Corning, Cat# 08-774-406) in a cell recovery solution (Corning, Cat# CB-40253). Spheroid clusters were then dissociated into a single cell suspension with TrypLE (Gibco, Cat# 12605). […]
Organoids were isolated and dissociated as described above. Cell numbers were counted by trypan blue exclusion and 5000 cells per well were plated on the Matrigel coated and pre-warmed 96-well plates. […] 100 μl of CellTiter-Glo® 3D reagent (Promega cat# G9682) was added to each well after desired time points and luminescence signal measured after 30 minutes.
Supplementary file pone.0248034.s010.tif: S6 Fig Schematic of Patient-derived organoids (PDO) growth & formation assays. […] After the indicated treatment schedule organoid growth or formation was assessed by CTG assay. […]

[1] = system: Bclxl expression in the thymus; test: Bclxl expression in thymus after oral dosing (QPCR); type: in vivo, mouse; conditions: 100 mg/kg PO, C57Bl/6 female mice; S5 Fig
Method: Supplementary file pone.0248034.s009.tif: S5 Fig RORγt inhibitors reduce Bclxl expression in thymus of rodents. C57Bl/6 female mice were dosed PO with 100 mg/kg Compound 1, 2 or 3. Thymic tissues were collected from separate cohorts at 2, 8, 16 and 24 hours post-dose (n = 3 mice/timepoint). RNA was extracted from thymic tissues and Bclxl expression measured by QPCR. […] Time zero (‘0’) used as normalization timepoint and set to 1.0 RQ and mean set at 100% for % inhibition calculation. One-way ANOVA with Bonferroni correction for multiple comparisons used for statistical significance calculations. (TIF) Click here for additional data file.

[2] = system: KP/C pancreatic tumors in C57Bl/6 mice; test: In vivo tumor growth suppression, KP/C mouse model
Method: Pancreatic tumor chunks from KP/C mice [20] on C57Bl/6 background were inoculated subcutaneously in the flank of syngeneic mice. […] Tumor volumes and body weight were measured twice each week.
To test whether inhibition of RORγt can lead to tumor growth inhibition we utilized the Kras^G12D/+/Trp53^null/Pdx1-cre (KP/C) mouse model of pancreatic cancer [20]. C57Bl/6 mice were inoculated in the flank with KP/C tumor chunks and enrolled in the study when the average tumor volume reached 200 mm^3. […] To evaluate target engagement, we examined changes in expression of a subset of potential RORγt target genes in tumor samples.

## O=C(O)[C@@H]1CCC(c2nn(C(=O)c3c(Cl)cccc3C(F)(F)F)c3cccc(F)c23)=C[C@H]1O [Compound 3]
PDAC PDO model T031P; 120 hours
  IC50: 30 µM
PDAC PDO model T031P; 168 hours
  IC50: 10 µM
[1]
  Bclxl expression in the thymus: modulation of Bclxl expression in the thymus
[2]; Compound 3 30mg/kg BID plus gemcitabine vs gemcitabine
  tumor volume, combination with gemcitabine: no additional benefit
[2]; single agent vs vehicle, 28 days of dosing
  tumor volume: not statistically significant
